Source: patent US9938335B2, “Glucagon and GLP-1 co-agonist compounds” (Eli Lilly and Company, priority 2015, dated 2018)
Converted amounts (≈) assume the structure as drawn. Where two headings read alike, the source gives them in different places. Marks after values point to notes of the source that are not given here.

Experiments:
[1] = Solubility (RP-HPLC and HPLC-SEC, 1 week at 4° C.); type: physicochemical; details: for HMW species formation by SEC-HPLC: 1 week at 4° C.; for visible precipitation or phase separation: after 1 week storage at 4° C.
Description: Solubility of compounds of the present invention is measured in an Agilent 1100 HPLC, an Agilent 1200 HPLC and a Nanodrop 2000. The following HPLC columns are used:
(a) RP-HPLC: Waters Symmetry Shield C18, 3.6 um, 4.6×100 mm
(b) HPLC-SEC: Tosoh Biosciences, TSK2000SWXL […]
All peptide concentrations are made at 10 mg/mL in the following:
(a) 10 mM Tris pH 8.0+3 mg/mL m-cresol
(b) 10 mM Tris pH 8.0+3 mg/mL m-cresol+150 mM NaCl
(c) 10 mM Tris pH 8.0+3 mg/mL m-cresol+0.02% Tween-20
5 mL of 10 mg/mL peptide dissolved in 10 mM Tris at pH 8.0 is concentrated to approximately 20 mg/mL using Amicon-ultra 3 kDa MWCO devices. The solution is filtered using Millivex 0.22 μM filters (PVDF membrane) and the final concentration is measured by the NanoDrop spectrometer. This stock solution is used to formulate to the final conditions stated above using 3× m-cresol, 10× NaCl, and 100× Tween-20 stock solutions. A 10 mg/mL PBS solution is also prepared by dissolving directly at 5 mg/mL and concentrating using Amicon-ultra 3 kDa MWCO devices.
Each solution is placed in a refrigerator at 4° C. for 1 week, with analysis by RP-HPLC to assess concentration and HPLC-SEC to assess HMW species formation. Analyses completed at T-0 week and T-1 week.
The solubility of Compounds 1-4 was measured essentially as described in this assay.

hGLP-1-R = hGLP-1-R (Homo sapiens, UniProt P43220); assay: hGLP-1R Binding Assay (SPA radioligand competition, 293HEK membranes); design: expressed in transfected cells; host or cells: 293HEK, stably transfected with plasmid phD, Hygromycin-selected; crude plasma membranes; details: read-out: Ki, nM ± SEM at the hGLP-1-R
DIO mice (C57BL/6) [2] = assay: Chronic treatment in DIO mice (body weight, fat, food intake); type: in vivo, mouse
Description: The effects on food intake and body weight/fat are evaluated in DIO mice. Five to six months old DIO mice (C57BL/6) from Taconic Biosciences are used in this study. Animals are individually housed in a temperature-controlled (24° C.) facility with a 12 hour light/dark cycle (lights on 6:00), and free access to food and water. The mice are acclimated to the facility for two weeks. The day before the study start, fat mass is measured by nuclear magnetic resonance (NMR) using an Echo Medical System (Houston, Tex.) instrument. The mice are randomized to treatment groups (N=7/group) based on body weight and fat mass so each group had similar starting mean body weight and fat mass. […] SC injections are made on Day 1, 4, 7, 10, and 13. Body weight and food intake are measured right before each injection throughout the study. Percent changes in body weight are calculated as follows: […]
At the completion of the study, total fat mass is measured again by NMR. Statistics are analyzed using ANOVA with Dunnett's comparison by JMP 6. Significance is denoted at p≤0.05 vs. vehicle.

Human Gcg-R = target: T1, Human Gcg-R (Homo sapiens, UniProt P47871); assay: Functional hGcg-R assay (cAMP HTRF, HEK-293 clonal cell line); type: cell-based; details: for EC50: cAMP, 60 minute incubation, 0.25% FBS, 0.05% BSA, geometric mean, read-out: Human Gcg-R EC50, nM ± SEM, (n)
T1 construct: expressed in transfected cells; host or cells: HEK-293 clonal cell line over-expressing the receptor
Description: After a 60 minute incubation at room temperature, the resulting increase in intracellular cAMP (adenosine 3′,5′-cyclic monophosphate) is quantitatively determined using the CisBio cAMP Dynamic 2 HTRF Assay Kit (62AM4PEJ). cAMP levels within the cell are detected by adding the cAMP-d2 conjugate in cell lysis buffer (20 μl) followed by the antibody anti-cAMP-Eu^3+-Cryptate, also in cell lysis buffer (20 μl).
A relative EC50 value and percent top (Emax) are derived by non-linear regression analysis using the percent maximal response vs. the concentration of peptide added, fitted to a four-parameter logistic equation (Genedata Screener®).
Means for EC50 are expressed as Geometric means±standard error of the mean (SEM) with the number of replicates (n) indicated in parenthesis. Means for Emax are expressed as the arithmetic mean±standard error. ND signifies that agonist activity was not detected.

hGcg-R = hGcg-R (Homo sapiens, UniProt P47871); assay: hGcg-R Binding Assay (SPA radioligand competition, 293HEK membranes); details: read-out: Ki, nM ± SEM at the hGcg-R
DIO mice (C57BL/6) [3] = assay: Acute treatment in DIO mice (PCSK9, FGF-21, cholesterol); type: in vivo, mouse; details: 30 nmol/kg sc, 16 hours post dose
Description: In order to investigate metabolic pathways involved with the treatment of compounds of the present invention independent of weight loss, compounds are tested in DIO mice (C57BL/6) acutely. The mice used are three to four months old on a high fat diet for at least 4 weeks. Animals are individually housed in a temperature-controlled (24° C.) facility with a 12 hour light/dark cycle (lights on 6:00), and free access to food and water. Vehicle or testing compounds were administered to mice by subcutaneous injection at 16:00 the day before the study day. Animals were sacrificed 16 hours later to collect blood via cardia puncture. Statistics are analyzed using ANOVA with Dunnett's comparison for JMP-6. Significance is denoted at p≤0.05 vs vehicle.
Food intake was decreased to a similar level in all treatment groups, which may indicate that changes in cholesterol, PCSK9 and FGF-21 are food-intake independent.

DIO mice (C57BL/6) [4] = assay: Glycemic control in DIO mice; type: in vivo, mouse; details: for 44 hours Glucose AUC (% of Vehicle): OGTT 44 hours post-injection; for 44 hours Glucose AUC (% of Vehicle) / 78 hours Glucose AUC (% of Vehicle): 25 nmol/kg sc; for 78 hours Glucose AUC (% of Vehicle): OGTT 78 hours post-injection; for glucose excursions post an oral glucose challenge: OGTTs at 44 and 78 hours post injection, 25 nmol/kg; for Blood glucose (mg/dL) post-injection, Mean: male DIO mice, 25 nmol/kg sc once
Description: Five to six months old male DIO mice (C57BL/6) from Taconic Biosciences are used in this study. Animals are individually housed in a temperature-controlled (24° C.) facility with a 12 hour light/dark cycle (lights on 6:00), and free access to food and water. After two weeks acclimation to the facility, the mice are randomized to treatment groups (n=7/group) based on their body weight and blood glucose. Mice are injected subcutaneously once with vehicle or compounds (25 nmol/kg). Blood glucose is monitored 2 and 8 hours post-injection and then once a day at 08:00 for 4 days. OGTTs are performed at 44 and 78 hours post the peptide injection. Statistics are analyzed using ANOVA with Dunnett's comparison by JMP 6. Significance is denoted at p≤0.05 vs vehicle.

[5] = 10 mM Tris pH 8.0 + 3 mg/mL m-cresol + 0.02% Tween-20, Tris pH 8 + 3 mg/mL m-cresol + 0.02% Tween-20
[6] = 10 mM Tris pH 8.0 + 3 mg/mL m-cresol + 150 mM NaCl, Tris pH 8 + 3 mg/mL m-cresol + 150 mm NaCl
[7] = 10 mM Tris pH 8.0 + 3 mg/mL m-cresol, Tris pH 8 + 3 mg/mL m-cresol
[8] = PBS pH 7.4, pH 7.4, read-out: solubility in PBS, pH 7.4
[9] = 15 nmol/kg sc every three days for 15 days
[10] = 30 nmol/kg sc every three days for 15 days

T1 sequence (P47871 26-477): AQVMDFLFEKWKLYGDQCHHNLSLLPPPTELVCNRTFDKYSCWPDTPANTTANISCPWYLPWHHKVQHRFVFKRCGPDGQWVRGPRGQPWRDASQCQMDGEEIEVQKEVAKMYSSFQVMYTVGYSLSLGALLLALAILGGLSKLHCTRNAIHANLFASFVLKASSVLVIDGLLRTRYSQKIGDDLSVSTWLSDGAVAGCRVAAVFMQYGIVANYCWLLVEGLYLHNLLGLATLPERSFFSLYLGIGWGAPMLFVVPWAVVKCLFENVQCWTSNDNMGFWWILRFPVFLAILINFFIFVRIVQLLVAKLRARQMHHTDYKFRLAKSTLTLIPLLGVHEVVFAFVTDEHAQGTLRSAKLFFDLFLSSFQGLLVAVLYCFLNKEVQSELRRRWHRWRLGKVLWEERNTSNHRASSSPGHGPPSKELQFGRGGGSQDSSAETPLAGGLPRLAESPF
Chain of hGLP-1-R (P43220 24-463): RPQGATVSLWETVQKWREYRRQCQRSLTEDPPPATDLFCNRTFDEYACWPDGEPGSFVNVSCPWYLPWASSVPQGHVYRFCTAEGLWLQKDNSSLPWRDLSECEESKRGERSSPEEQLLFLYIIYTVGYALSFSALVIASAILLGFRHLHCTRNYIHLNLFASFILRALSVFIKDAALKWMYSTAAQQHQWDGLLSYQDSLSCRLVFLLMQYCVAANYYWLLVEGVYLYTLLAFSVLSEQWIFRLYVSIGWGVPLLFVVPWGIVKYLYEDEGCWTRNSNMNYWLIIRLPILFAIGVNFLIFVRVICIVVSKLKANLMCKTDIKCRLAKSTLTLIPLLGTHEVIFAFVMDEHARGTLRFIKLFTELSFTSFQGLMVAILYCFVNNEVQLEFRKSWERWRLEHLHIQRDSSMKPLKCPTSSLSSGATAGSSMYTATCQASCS
Chain of hGcg-R (P47871 26-477): as the sequence (P47871 26-477) above

| SMILES | solubility at 1 week [1, 5] [µg/mL] | solubility at 1 week [1, 6] [µg/mL] | solubility at 1 week [1, 7] [µg/mL] | HMW species formation by SEC-HPLC [1] | solubility at 1 week [1, 8] [µg/mL] | visible precipitation or phase separation [1] | Ki (hGLP-1-R) [nM] | Body Fat (% change vs. vehicle from Day 1) (DIO mice (C57BL/6) [2]; [9]) | Body Weight (% change vs. vehicle from Day 1) (DIO mice (C57BL/6) [2]; [9]) | Body Fat (% change vs. vehicle from Day 1) (DIO mice (C57BL/6) [2]; [10]) | Body Weight (% change vs. vehicle from Day 1) (DIO mice (C57BL/6) [2]; [10]) | EC50 (Human Gcg-R) [nM] | Ki (hGcg-R) [nM] | Cholesterol (% of vehicle) (DIO mice (C57BL/6) [3]) | FGF-21 (% of vehicle) (DIO mice (C57BL/6) [3]) | PCSK9 (% of vehicle) (DIO mice (C57BL/6) [3]) | 44 hours Glucose AUC (% of Vehicle) (DIO mice (C57BL/6) [4]) | 78 hours Glucose AUC (% of Vehicle) (DIO mice (C57BL/6) [4]) | glucose excursions post an oral glucose challenge (DIO mice (C57BL/6) [4]) | Blood glucose (mg/dL) post-injection, Mean (DIO mice (C57BL/6) [4]; 2 hours post-injection) [mg/dL] | further results |
| --- | --- | --- | --- | --- | --- | --- | --- | --- | --- | --- | --- | --- | --- | --- | --- | --- | --- | --- | --- | --- | --- |
| CC(C)C[C@H](NC(=O)[C@H](CC(C)C)NC(=O)[C@H](Cc1c[nH]c2ccccc12)NC(=O)[C@H](CCC(=O)O)NC(=O)[C@@H](NC(=O)[C@H](Cc1ccccc1)NC(=O)[C@H](CCC(=O)O)NC(=O)[C@H](CCCCNC(=O)COCCOCCNC(=O)COCCOCCNC(=O)CC[C@H](NC(=O)CCCCCCCCCCCCCCCCC(=O)O)C(=O)O)NC(=O)[C@H](C)NC(=O)[C@H](CCCCN)NC(=O)[C@H](CCCCN)NC(=O)[C@H](CCC(=O)O)NC(=O)[C@H](CC(=O)O)NC(=O)[C@H](CC(C)C)NC(=O)[C@H](Cc1ccc(O)cc1)NC(=O)[C@H](CCCCN)NC(=O)[C@H](CO)NC(=O)[C@H](Cc1ccc(O)cc1)NC(=O)[C@H](CC(=O)O)NC(=O)[C@H](CO)NC(=O)[C@@H](NC(=O)[C@H](Cc1ccccc1)NC(=O)[C@@H](NC(=O)CNC(=O)[C@H](CCC(N)=O)NC(=O)C(C)(C)NC(=O)[C@@H](N)Cc1c[nH]cn1)[C@@H](C)O)[C@@H](C)O)C(C)C)C(=O)N[C@@H](CCC(=O)O)C(=O)NCC(=O)NCC(=O)N1CCC[C@H]1C(=O)N[C@@H](CO)C(=O)N[C@@H](CO)C(=O)NCC(N)=O [Compound 1] | 10000 | 10000 | 10000 | No observed HMW species formation by SEC-HPLC; | 10000 (≈ 2210 µM) | No visible precipitation or phase separation observed after 1 week | 23 ± 5.5 | −49* % | −19* % | −66* % | −29* % | 7.21 ± 1.06 | 14.6 ± 4.4 | 60.9* % of vehicle | 1770* % of vehicle | 14.6* % of vehicle | 42* % of Vehicle | 90 % of Vehicle | lower glucose excursions post an oral glucose challenge at 44 hour | 168.5 | Emax (Human Gcg-R; HEK293): 112 ± 3%; Blood glucose (mg/dL) post-injection, Mean (DIO mice (C57BL/6) [4]; 8 hours post-injection): 79.4 mg/dL; Blood glucose (mg/dL) post-injection, Mean (DIO mice (C57BL/6) [4]; 24 hours post-injection): 90.6 mg/dL; Blood glucose (mg/dL) post-injection, Mean (DIO mice (C57BL/6) [4]; 48 hours post-injection): 101.9 mg/dL; Blood glucose (mg/dL) post-injection, Mean (DIO mice (C57BL/6) [4]; 72 hours post-injection): 113.4 mg/dL; Blood glucose (mg/dL) post-injection, Mean (DIO mice (C57BL/6) [4]; 96 hours post-injection): 150.0 mg/dL |
| CC(C)C[C@H](NC(=O)[C@H](CC(C)C)NC(=O)[C@H](Cc1c[nH]c2ccccc12)NC(=O)[C@H](CCC(=O)O)NC(=O)[C@@H](NC(=O)[C@H](Cc1ccccc1)NC(=O)[C@H](CCC(=O)O)NC(=O)[C@H](CCCCNC(=O)COCCOCCNC(=O)COCCOCCNC(=O)CC[C@H](NC(=O)CCCCCCCCCCCCCCCCCCC(=O)O)C(=O)O)NC(=O)[C@H](C)NC(=O)[C@H](CCCCN)NC(=O)[C@H](CCCCN)NC(=O)[C@H](CCC(=O)O)NC(=O)[C@H](CC(=O)O)NC(=O)[C@H](CC(C)C)NC(=O)[C@H](Cc1ccc(O)cc1)NC(=O)[C@H](CCCCN)NC(=O)[C@H](CO)NC(=O)[C@H](Cc1ccc(O)cc1)NC(=O)[C@H](CC(=O)O)NC(=O)[C@H](CO)NC(=O)[C@@H](NC(=O)[C@H](Cc1ccccc1)NC(=O)[C@@H](NC(=O)CNC(=O)[C@H](CCC(N)=O)NC(=O)C(C)(C)NC(=O)[C@@H](N)Cc1c[nH]cn1)[C@@H](C)O)[C@@H](C)O)C(C)C)C(=O)N[C@@H](CCC(=O)O)C(=O)NCC(=O)NCC(=O)N1CCC[C@H]1C(=O)N[C@@H](CO)C(=O)N[C@@H](CO)C(=O)NCC(N)=O [Compound 2] | 10000 | 10000 | 10000 | No observed HMW species formation by SEC-HPLC; | 10000 (≈ 2190 µM) | No visible precipitation or phase separation observed after 1 week | 28.6 ± 4.8 | −43* % | −19* % | −70* % | −33* % | 26.5 ± 2.2 | 17.7 ± 5 | 80.6* % of vehicle | 465* % of vehicle | 12.8* % of vehicle | 39* % of Vehicle | 66* % of Vehicle | lower glucose excursions post an oral glucose challenge at both time points | 112.7 | Blood glucose (mg/dL) post-injection, Mean (DIO mice (C57BL/6) [4]; 8 hours post-injection): 87.4 mg/dL; Blood glucose (mg/dL) post-injection, Mean (DIO mice (C57BL/6) [4]; 24 hours post-injection): 101.1 mg/dL; Blood glucose (mg/dL) post-injection, Mean (DIO mice (C57BL/6) [4]; 48 hours post-injection): 101.3 mg/dL; Blood glucose (mg/dL) post-injection, Mean (DIO mice (C57BL/6) [4]; 72 hours post-injection): 97.6 mg/dL; Blood glucose (mg/dL) post-injection, Mean (DIO mice (C57BL/6) [4]; 96 hours post-injection): 115.0 mg/dL |
